Reference: patent publication US8952033B2, “4-anilinofuro[2,3-b]quinoline derivatives, their preparation processes, and pharmaceutical compositions comprising the same” (Kaohsiung Medical University, priority 2011, dated 2015)

What was measured:
[1] = tested on: NCI-H460 (non-small cell lung carcinoma cell); test: MTT antiproliferative assay (cell growth %, GI50), NCI-H460; type: cell-based; conditions: Homo sapiens, NCI-H460, 48 hours, MTT; for activity at 4000 µg/mL: 4 mg/ml; for activity at 20000 µg/mL: 20 mg/ml
Method: (§1) Antiproliferative activities of the compounds of this invention were evaluated substantially according to the method as described in Tseng, C. […] The cells were treated with the test compounds, i.e., the compounds of this invention (in dimethylsulfoxide (DMSO)), or DMSO for 48 hours.
(§2) Before and after the treatment with the test compounds or DMSO, 3-(4,5-dimethylthiazol-2-yl)-2,5-diphenyltetrazolium bromide (MTT, 2 mg/mL, 100 μL) was added to each of the cultures, followed by cultivation for 2 hours. The resultant formazan was dissolved by the addition of DMSO. Absorbance at 570 nm (OD570) was measured using a microtiter plate reader (Dynex MRX-II).
(§3) Determination of GI50 was conducted thrice for each test compound. GI50 is expressed as mean±SD.

[2] = tested on: MCF-7 (breast cancer cell); test: MTT antiproliferative assay (cell growth %, GI50), MCF-7; type: cell-based; conditions: Homo sapiens, MCF7, 48 hours, MTT; for activity at 4000 µg/mL: 4 mg/ml; for activity at 20000 µg/mL: 20 mg/ml
Method: as §1, §2, §3

Structure (SMILES)	activity at 4000 µg/mL [1] [%]	activity at 20000 µg/mL [1] [%]	activity at 4000 µg/mL [2] [%]	activity at 20000 µg/mL [2] [%]
C/C(=N\OCCN1CCOCC1)c1ccc(Nc2c3ccccc3nc3occ(Cl)c23)cc1 [Compound 14g, (E)-1-(4-(3-Chlorofuro[2,3-b]quinolin-4-ylamino)phenyl)ethanone O-2-morpholinoethyl oxime]	107	16	112	54
C/C(=N\OCCN1CCCCC1)c1ccc(Nc2c3ccccc3nc3occc23)cc1 [Compound 13f, (E)-1-(4-(Furo[2,3-b]quinolin-4-ylamino)phenyl)ethanone O-2-(piperidin-1-yl)ethyl oxime]	99	-1	114	3
COc1ccc2c(Nc3ccc(/C(C)=N/OCCN4CCCCC4)cc3)c3c(Cl)coc3nc2c1 [Compound 16f, (E)-1-(4-(3-Chloro-7-methoxyfuro[2,3-b]quinolin-4-ylamino)phenyl)ethanone O-2-(piperidin-1-yl)ethyl oxime]	67	3	56	-1
C/C(=N\OCCN1CCCCC1)c1ccc(Nc2c3ccccc3nc3occ(Cl)c23)cc1 [Compound 14f, (E)-1-(4-(3-Chlorofuro[2,3-b]quinolin-4-ylamino)phenyl)ethanone O-2-(piperidin-1-yl)ethyl oxime]	101	3	121	26
C/C(=N\OCCCN(C)C)c1ccc(Nc2c3ccccc3nc3occc23)cc1 [Compound 13d, (E)-1-(4-(Furo[2,3-b]quinolin-4-ylamino)phenyl)ethanone O-3-(dimethylamino)propyl oxime]	52	7	84	22
C/C(=N\OCCN1CCCC1)c1ccc(Nc2c3ccccc3nc3occc23)cc1 [Compound 13e, (E)-1-(4-(Furo[2,3-b]quinolin-4-ylamino)phenyl)ethanone O-2-(pyrrolidin-1-yl)ethyl oxime]	54	1	64	6
C/C(=N\OCCCCN1CCOCC1)c1ccc(Nc2c3ccccc3nc3occc23)cc1 [Compound 13h, (E)-1-(4-(Furo[2,3-b]quinolin-4-ylamino)phenyl)ethanone O-4-morpholinobutyl oxime]	118	-1	76	-2
C/C(=N\OCCN(C)C)c1ccc(Nc2c3ccccc3nc3occc23)cc1 [Compound 13b, (E)-1-(4-(Furo[2,3-b]quinolin-4-ylamino)phenyl)ethanone O-2-(dimethylamino)ethyl oxime]	94	0	59	0
COc1ccc2c(Nc3ccc(/C(C)=N/OCCCCN4CCOCC4)cc3)c3ccoc3nc2c1 [Compound 15h, (E)-1-(4-(7-Methoxyfuro[2,3-b]quinolin-4-ylamino)phenyl)ethanone O-4-morpholinobutyl oxime]	89	21	83	75
COc1ccc2c(Nc3ccc(/C(C)=N/OCCN4CCCC4)cc3)c3ccoc3nc2c1 [Compound 15e, (E)-1-(4-(7-Methoxyfuro[2,3-b]quinolin-4-ylamino)phenyl)ethanone O-2-(pyrrolidin-1-yl)ethyl oxime]	69	5	63	3
C/C(=N\OCCN(C)C)c1ccc(Nc2c3ccccc3nc3occ(Cl)c23)cc1 [Compound 14b, (E)-1-(4-(3-Chlorofuro[2,3-b]quinolin-4-ylamino)phenyl)ethanone O-2-(dimethylamino)ethyl oxime]	68	-1	70	-3
COc1ccc2c(Nc3ccc(/C(C)=N/OCCN4CCCC4)cc3)c3c(Cl)coc3nc2c1 [Compound 16e, (E)-1-(4-(3-Chloro-7-methoxyfuro[2,3-b]quinolin-4-ylamino)phenyl)ethanone O-2-(pyrrolidin-1-yl)ethyl oxime]	53	5	55	1
COc1ccc2c(Nc3ccc(/C(C)=N/OCCCCN4CCOCC4)cc3)c3c(Cl)coc3nc2c1 [Compound 16h, (E)-1-(4-(3-Chloro-7-methoxyfuro[2,3-b]quinolin-4-ylamino)phenyl)ethanone O-4-morpholinobutyl oxime]	87	20	96	5
COc1ccc2c(Nc3ccc(/C(C)=N/OCCCN)cc3)c3c(Cl)coc3nc2c1 [Compound 16c, (E)-1-(4-(3-Chloro-7-methoxyfuro[2,3-b]quinolin-4-ylamino)phenyl)ethanone O-3-aminopropyl oxime]	91	8	101	3
C/C(=N\OCCN1CCOCC1)c1ccc(Nc2c3ccccc3nc3occc23)cc1 [Compound 13g, (E)-1-(4-(Furo[2,3-b]quinolin-4-ylamino)phenyl)ethanone O-2-morpholinoethyl oxime]	108	23	120	56
COc1ccc2c(Nc3ccc(/C(C)=N/OCCN4CCOCC4)cc3)c3c(Cl)coc3nc2c1 [Compound 16g, (E)-1-(4-(3-Chloro-7-methoxyfuro[2,3-b]quinolin-4-ylamino)phenyl)ethanone O-2-morpholinoethyl oxime]	97	68	85	37
COc1ccc2c(Nc3ccc(/C(C)=N/OCCCN(C)C)cc3)c3ccoc3nc2c1 [Compound 15d, (E)-1-(4-(7-Methoxyfuro[2,3-b]quinolin-4-ylamino)phenyl)ethanone O-3-(dimethylamino)propyl oxime]	82	5	59	2
C/C(=N\OCCCCN1CCOCC1)c1ccc(Nc2c3ccccc3nc3occ(Cl)c23)cc1 [Compound 14h, (E)-1-(4-(3-Chlorofuro[2,3-b]quinolin-4-ylamino)phenyl)ethanone O-4-morpholinobutyl oxime]	91	3	75	-3
C/C(=N\OCCCN(C)C)c1ccc(Nc2c3ccccc3nc3occ(Cl)c23)cc1 [Compound 14d, (E)-1-(4-(3-Chlorofuro[2,3-b]quinolin-4-ylamino)phenyl)ethanone O-3-(dimethylamino)propyl oxime]	52	1	61	1
COc1ccc2c(Nc3ccc(/C(C)=N/OCCCN)cc3)c3ccoc3nc2c1 [Compound 15c, (E)-1-(4-(7-Methoxyfuro[2,3-b]quinolin-4-ylamino)phenyl)ethanone O-3-aminopropyl oxime]	105	16	100	18
COc1ccc2c(Nc3ccc(/C(C)=N/OCCN4CCOCC4)cc3)c3ccoc3nc2c1 [Compound 15g, (E)-1-(4-(7-Methoxyfuro[2,3-b]quinolin-4-ylamino)phenyl)ethanone O-2-morpholinoethyl oxime]	96	44	76	25
COc1ccc2c(Nc3ccc(/C(C)=N/OCCN4CCCCC4)cc3)c3ccoc3nc2c1 [Compound 15f, (E)-1-(4-(7-Methoxyfuro[2,3-b]quinolin-4-ylamino)phenyl)ethanone O-2-(piperidin-1-yl)ethyl oxime]	84	9	77	2
COc1ccc2c(Nc3ccc(/C(C)=N/OCCN(C)C)cc3)c3ccoc3nc2c1 [Compound 15b, (E)-1-(4-(7-Methoxyfuro[2,3-b]quinolin-4-ylamino)phenyl)ethanone O-2-(dimethylamino)ethyl oxime]	75	-1	67	-1
C/C(=N\OCCN1CCCC1)c1ccc(Nc2c3ccccc3nc3occ(Cl)c23)cc1 [Compound 14e, (E)-1-(4-(3-Chlorofuro[2,3-b]quinolin-4-ylamino)phenyl)ethanone O-2-(pyrrolidin-1-yl)ethyl oxime]	69	-1	86	-2
